Experimental data published in publication PMC4874602 (ACS Infectious Diseases, 2016).
Read-outs that look alike come from different tables or passages of the source.

Experiments:
[1] = BALB/c; for Cmax / AUC168h / Tmax / t1/2: single 25 mg/kg oral dose of BDQ; for AUC8h: single 150 mg/kg oral dose of PZA
[2] = C3HeB/FeJ; for AUC8h: single 150 mg/kg oral dose of PZA
[3] = lung; single dose of 25 mg/kg BDQ; BALB/c and C3HeB/FeJ
[4] = tested on: Mycobacterium tuberculosis; conditions: cited from earlier work
[5] = cited from earlier work
M. tuberculosis Erdman [6] = format: in vivo, Mycobacterium tuberculosis; conditions: BALB/c, P < 0.01
M. tuberculosis Erdman [7] = format: in vivo, Mycobacterium tuberculosis; conditions: C3HeB/FeJ, P < 0.01
THP-1 cells = conditions: 30 min exposure, 1 mM PZA, 0.4 mM POA
in vivo [8] = conditions: BALB/c, mouse, po, 150 mg/kg; for Cmax / half-life / Tmax: single 150 mg/kg oral dose of PZA; for half-life: t1/2, BALB/c
in vivo [9] = conditions: C3HeB/FeJ, mouse, po, 150 mg/kg; for Cmax / half-life / Tmax: single 150 mg/kg oral dose of PZA; for half-life: t1/2, C3HeB/FeJ
in vivo [10] = conditions: BALB/c and C3HeB/FeJ, mouse, 150 mg/kg
[11] = lesion (cellular non-necrotizing, type III)
[12] = lesion (type I), single 25 mg/kg oral dose of BDQ
[13] = plasma, single 25 mg/kg oral dose of BDQ
[14] = uninvolved lung, single 25 mg/kg oral dose of BDQ
[15] = whole lung, single 25 mg/kg oral dose of BDQ
[16] = PZA 150 mg/kg, first 3 weeks of treatment
[17] = PZA 300 mg/kg vs 150 mg/kg, first 3 weeks

Which Cmax [1, 11] does the source give for `CNCCC(O)(c1cccc2ccccc12)C(c1ccccc1)c1cc2cc(Br)ccc2nc1OC` (stereo not shown) [M2, N-desmethyl-BDQ] here?
The Cmax was 82.7 µg/g.

And the AUC168h ([1]; lesion (type III))?
The AUC168h was 7619 µg·h/g.

What about the Tmax ([1]; lesion (type III)) of the same compound?
The Tmax was 24 h.

What about the t1/2 ([1]; lesion (type III)) of the same compound?
Its t1/2 is 90.7 h.

And the AUC168h ([1]; plasma)?
The AUC168h was 57.3 µg·h/mL.

And the Cmax ([1]; plasma)?
Its Cmax is 0.76 µg/mL.

And the Tmax ([1]; plasma)?
Its Tmax is 8 h.

What about the t1/2 ([1]; plasma, 72–168 h terminal) of the same compound?
Its t1/2 is 59.8 h.

And the AUC168h ([1]; uninvolved lung)?
Its AUC168h is 8825 µg·h/g.

And the Cmax ([1]; uninvolved lung)?
The Cmax was 111.8 µg/g.

And the Tmax ([1]; uninvolved lung)?
Its Tmax is 24 h.

What about the t1/2 ([1]; uninvolved lung) of the same compound?
Its t1/2 is 69.7 h.

And the AUC168h ([1]; whole lung)?
Its AUC168h is 7207 µg·h/g.

What about the Cmax ([1]; whole lung) of the same compound?
The Cmax was 69.5 µg/g.

What about the Tmax ([1]; whole lung) of the same compound?
Its Tmax is 24 h.

What about the t1/2 ([1]; whole lung) of the same compound?
Its t1/2 is 90.6 h.

What about the “concentration in dissected caseum of type I granulomas (LC/MS/MS)” value ([2]; 8 h following a single 25 mg/kg dose of BDQ, preliminary) of the same compound?
Its value is 587.5 ng/g.

What about the Cmax ([2]; lesion (caseous necrotic granuloma, type I), single 25 mg/kg oral dose of BDQ) of the same compound?
The Cmax was 26.8 µg/g.

And the AUC168h [2, 12]?
Its AUC168h is 2848 µg·h/g.

What about the Tmax [2, 12] of the same compound?
The Tmax was 24 h.

And the t1/2 [2, 12]?
Its t1/2 is 98.6 h.

And the AUC168h [2, 13]?
The AUC168h was 69.3 µg·h/mL.

What about the Cmax [2, 13] of the same compound?
The Cmax was 0.70 µg/mL.

And the Tmax [2, 13]?
The Tmax was 24 h.

What about the “plasma exposure (AUC168h) as printed in the discussion” value [2, 13] of the same compound?
Its value is 69.3 µg·h/g.

And the t1/2 ([2]; plasma, single 25 mg/kg oral dose of BDQ, 72–168 h terminal)?
The t1/2 was 55.9 h.

And the AUC168h [2, 14]?
Its AUC168h is 4895 µg·h/g.

And the Cmax [2, 14]?
Its Cmax is 46.9 µg/g.

And the Tmax [2, 14]?
The Tmax was 24 h.

And the t1/2 [2, 14]?
Its t1/2 is 89.4 h.

And the AUC168h [2, 15]?
Its AUC168h is 5254 µg·h/g.

What about the Cmax [2, 15] of the same compound?
The Cmax was 45.4 µg/g.

And the Tmax [2, 15]?
Its Tmax is 24 h.

And the t1/2 [2, 15]?
Its t1/2 is 134.7 h.

What about the “tmax by MALDI-MSI” value [3] of the same compound?
Its value is 24 h.

What about the “MIC relative to BDQ” value [4] of the same compound?
Its value is “approximately five times higher than that of BDQ”.

And the protein bound [5]?
The protein bound was “more than 99%”.

Which “change in pulmonary CFU” value (M. tuberculosis Erdman [6]; [16]) does the source give for `NC(=O)c1cnccn1` [PZA, pyrazinamide] here?
Its value is “significant decrease in pulmonary CFU”.

What about the “change in pulmonary CFU” value (M. tuberculosis Erdman [6]; [17]) of the same compound?
Its value is “larger decrease in CFU”.

What about the “change in pulmonary CFU” value (M. tuberculosis Erdman [7]; [16]) of the same compound?
Its value is “significant decrease in pulmonary CFU”.

And the “change in pulmonary CFU” value (M. tuberculosis Erdman [7]; [17])?
The value was “larger decrease in CFU”.

And the AUC8h ([1]; lesion (type III))?
Its AUC8h is 459.4 µg·h/g.

And the AUC8h ([1]; uninvolved lung)?
The AUC8h was 262.8 µg·h/g.

And the AUC8h ([1]; whole lung)?
Its AUC8h is 298.6 µg·h/g.

And the AUC8h ([2]; lesion (type I))?
The AUC8h was 351.8 µg·h/g.

What about the AUC8h ([2]; uninvolved lung) of the same compound?
The AUC8h was 237.9 µg·h/g.

And the AUC8h ([2]; whole lung)?
The AUC8h was 306.3 µg·h/g.

What about the “accumulation within THP-1 cells” value (THP-1 cells) of the same compound?
Its value is “accumulated to a very low degree”.

And the MIC ([4]; pH 7.0, standard laboratory culture conditions)?
Its MIC is greater than 1000 mg/mL.

What about the AUC(0-t) (in vivo [8]) of the same compound?
The AUC(0-t) was 346 µg·h/mL.

And the Kp (in vivo [8]; AUCLes/AUCplasma)?
The Kp was 1.33.

What about the Kp (in vivo [8]; AUCUL/AUCplasma) of the same compound?
The Kp was 0.76.

What about the Kp (in vivo [8]; AUCWL/AUCplasma) of the same compound?
The Kp was 0.86.

And the Cmax (in vivo [8]; [11])?
The Cmax was 146000 ng/g.

And the Cmax (in vivo [8]; plasma)?
Its Cmax is 161 µg/mL.

And the Cmax (in vivo [8]; uninvolved lung)?
The Cmax was 93600 ng/g.

What about the Cmax (in vivo [8]; whole lung) of the same compound?
The Cmax was 123000 ng/g.

And the half-life (in vivo [8]; lesion (type III))?
The half-life was 0.96 h.

And the half-life (in vivo [8]; plasma, 2.5–8 h terminal)?
Its half-life is 1.05 h.

And the half-life (in vivo [8]; uninvolved lung)?
Its half-life is 0.75 h.

What about the half-life (in vivo [8]; whole lung) of the same compound?
Its half-life is 1.02 h.

What about the Tmax (in vivo [8]; lesion (type III)) of the same compound?
Its Tmax is 0.5 h.

And the Tmax (in vivo [8]; plasma)?
The Tmax was 0.5 h.

What about the Tmax (in vivo [8]; uninvolved lung) of the same compound?
Its Tmax is 0.5 h.

And the Tmax (in vivo [8]; whole lung)?
Its Tmax is 0.5 h.

What about the AUC(0-t) (in vivo [9]) of the same compound?
The AUC(0-t) was 329 µg·h/mL.

What about the Kp (in vivo [9]; AUCLes/AUCplasma) of the same compound?
Its Kp is 1.07.

And the Kp (in vivo [9]; AUCUL/AUCplasma)?
The Kp was 0.72.

And the Kp (in vivo [9]; AUCWL/AUCplasma)?
The Kp was 0.93.

What about the Cmax (in vivo [9]; lesion (caseous necrotic granuloma, type I)) of the same compound?
Its Cmax is 94700 ng/g.

What about the Cmax (in vivo [9]; plasma) of the same compound?
The Cmax was 87.4 µg/mL.

And the Cmax (in vivo [9]; uninvolved lung)?
Its Cmax is 66200 ng/g.

What about the Cmax (in vivo [9]; whole lung) of the same compound?
The Cmax was 76500 ng/g.

What about the half-life (in vivo [9]; lesion (type I)) of the same compound?
The half-life was 2.88 h.

And the half-life (in vivo [9]; plasma, 2.5–8 h terminal)?
Its half-life is 2.6 h.

What about the half-life (in vivo [9]; uninvolved lung) of the same compound?
The half-life was 3.01 h.

And the half-life (in vivo [9]; whole lung)?
Its half-life is 2.82 h.

What about the Tmax (in vivo [9]; lesion (type I)) of the same compound?
The Tmax was 1 h.

What about the Tmax (in vivo [9]; plasma) of the same compound?
The Tmax was 0.75 h.

And the Tmax (in vivo [9]; uninvolved lung)?
The Tmax was 1 h.

What about the Tmax (in vivo [9]; whole lung) of the same compound?
Its Tmax is 1 h.

What about the Tmax (in vivo [10]) of the same compound?
Its Tmax is 0.5 to 1 h.
